What all share (test): inhibition of tumour cell growth, NCI panel, 48 h
Test [1] has as its system CAKI-1 renal.
The subject of test [2] is SR leukemia.
Test [3] concerns HOP-92 NSCLC.
Test [4] relates to NCI-H226 lung.
Test [5] relates to OVCAR-4 ovarian.
The subject of test [6] is NCI-H23 lung.
The test system of test [7] is T-47D breast.
For test [8], the system named is HL-60(TB) leukemia.
Test [9] has as its system SNB-75 CNS.
Test [10] has as its system NCI-H460 lung.

SMILES strings stand for the structures. “And” between values parts separate entries of the source, which are not always exact repeats. Identical values can stand only once.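 Five concentrations, 48 hours, 96-well plates. GI50 = concentration required for 50% inhibition of growth. At the TGI there is no net growth.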

Twelve molecules from PubChem BioAssay (NCI) can be followed below.

Turning to `CCOc1ccc2c(c1)C(=O)c1c-2n(CCCN=[N+]=[N-])c(=O)c2cc([N+](=O)[O-])ccc12`, the GI50 in [1] was 5.71 µM; in test [2], 0.176 µM; in test [3] it was 7.95 µM; in test [4], 2.24 µM; in test [5], 18.9 µM; in [6] it was 0.997 µM. Also, the GI50 was 0.102 µM in test [7], 28.5 µM in test [8], 17.3 µM in test [9] and 0.284 µM in [10]. Moreover, the TGI was 89.2 µM in test [1]; 11.9 µM in test [2]; 46.7 µM in test [3]; 9.92 µM in [4]; over 100 µM in test [5]; over 100 µM in test [6]. Besides, the TGI is 1.24 µM in test [7], over 100 µM in [8], 39.9 µM in [9] and 10.7 µM in test [10].
For the molecule `Cc1[nH]nc(C(=O)N/N=C/c2ccccc2Cl)c1N=NN(C)C`, the TGI in test [1], in test [2], in test [3], in [4], in test [5] and in test [6] was over 100 µM throughout. The TGI in [7], in test [8], in test [9] and in test [10] was over 100 µM in each case.
On to `COc1ncc(-c2ccc3nccc(C#CCCCCC(=O)NO)c3c2)cc1NS(=O)(=O)c1ccc(F)cc1F`, for which the GI50 in test [1] was 0.875 µM; in test [2], 0.146 µM; in test [3], 0.0156 µM; in test [4], 1.59 µM; in test [5], 1.72 µM; in test [6], 0.984 µM. Further, the GI50 in test [8] was 0.0665 µM; in test [9], 0.0543 µM; in test [10], 0.109 µM. In addition, the TGI in [1] came to 11.8 µM; in [2], 4.24 µM; in test [3], 0.106 µM; in [4], 15.5 µM; in test [5], 14.1 µM; in [6], 13 µM. Besides, the TGI in test [7] amounted to 0.055 µM; in test [8], 3.06 µM; in [9], 0.827 µM; in test [10] it was 11.2 µM.
`Nc1nc(N)c2c(n1)CCC(S(=O)(=O)c1ccc3ccccc3c1)C2` (stereo not given): the TGI in [1] was over 100 µM; in [2] it was 17.8 µM; in [3] it was over 72.2 µM; in test [4], over 100 µM; in test [5], over 100 µM; in [6], over 100 µM. Besides, the TGI was over 100 µM in test [7], 23.6 µM in [8], over 100 µM in [9] and over 67 µM in test [10]. In addition, the GI50 is 4.31 µM in [5] and 12.2 µM in test [9].
On to `COc1cc2c(cc1OCCCN1CCN(C(=S)SCCC(C#N)(c3ccccc3)c3ccccc3)CC1)N=C[C@@H]1CCCN1C2=O`, for which the GI50 in test [1] is 0.357 µM; in [2] it was 0.431 µM; in test [3], 0.545 µM; in test [4], 1.51 µM; in test [5], 2.15 µM; in test [6], 1.07 µM. Also, the GI50 was 1.58 µM in test [7], 0.876 µM in test [8], 1.31 µM in test [9] and 0.891 µM in [10]. Also, the TGI in test [1] was 1.48 µM; in test [3] it was 3.85 µM; in [4], 3.15 µM; in test [5], over 43.7 µM; in [6], 2.7 µM; in test [9] it was 2.9 µM.
`C[C@]12CC[C@@H]3c4ccc(OC(=O)N(CCCl)CCCl)cc4CC[C@H]3[C@@H]1CC[C@@H]2OP(=O)(O)O`: the GI50 was over 77.1 µM in test [1]; 9.82 µM in test [2]; over 100 µM in test [3]; 43.7 µM in test [4]; over 58.1 µM in [5]; 38.4 µM in [6]. Moreover, the GI50 is over 56.4 µM in [7], 30.1 µM in test [8], 29.2 µM in test [9] and 36.1 µM in test [10]. Besides, the TGI in test [1] is over 100 µM; in test [2], 33.3 µM; in test [3], over 100 µM; in test [4], over 100 µM; in [5], over 100 µM; in test [6], over 100 µM. Further, the TGI in test [7] was over 100 µM; in test [8], 98.5 µM; in [9] it was over 66.7 µM; in [10], over 100 µM.
Turning to `CN(C)C1CN(C(=O)c2cc(-c3ccc4ncnc(N5CCc6cc(F)c(Cl)cc65)c4c3)cnc2N)C1`, the GI50 in test [1] was 0.509 µM; in test [2] it was 1.17 µM; in [3], 0.331 µM; in [4], 0.986 µM; in test [6] it was 1.25 µM; in test [7] it was 0.299 µM. In addition, the GI50 in test [8] was 0.151 µM; in test [9] it was 0.195 µM; in test [10], 0.574 µM. In addition, the TGI in [1] is over 100 µM; in test [2], over 100 µM; in test [3], 2.17 µM; in test [4] it was over 100 µM; in test [6] it was over 100 µM; in [7] it was 5.52 µM. Besides, the TGI was 1.49 µM in [8], 2.02 µM in [9] and over 100 µM in [10].
For `CC1[C@@H]2CC=C3[C@H]4CCC5Cc6nc7c(nc6C[C@@]5(C)C4CC(=O)[C@]32CO[C@]12OC(C)(C)CC2O)CC1CC[C@@H]2C3=C[C@H]4O[C@@]5(O[C@@](C)(CO)C[C@@H]5O)C(C)[C@@]4(O)[C@]3(C)[C@@H](O)CC2[C@]1(C)C7` (stereo not given in full), the GI50 in test [2] is 0.000181 µM; in test [3] it was 0.000668 µM and 0.000454 µM; in [5] it was 0.039 µM and 0.0985 µM; in [6], 0.00281 µM; in test [7], 0.246 µM; in test [8], 0.000355 µM and 0.000365 µM. Besides, the GI50 in test [9] was 0.000365 µM; in [10] it was 0.000268 µM and 0.000365 µM. Further, the TGI in [2] was 0.00856 µM; in test [4], 0.0901 µM and 0.103 µM; in test [5], 0.921 µM and > 3.65 µM; in test [6] it was 0.275 µM and 0.0672 µM; in test [10], 0.013 µM and 0.116 µM.
Consider `Cc1cc(-c2cc(OC(=O)c3ccccc3)ccc2Cl)cc2nnc(Nc3ccc(OCCN4CCCC4)cc3)nc12`, for which the GI50 in [1] was 1.36 µM; in test [2], 0.46 µM; in [3], 0.303 µM; in test [5], 1.65 µM; in test [6] it was 1.72 µM; in test [7], 1.57 µM. Also, the GI50 in [8] is 2.47 µM; in test [9], 0.508 µM; in test [10] it was 1.72 µM. Also, the TGI in [1] is 2.69 µM; in test [2], 2.48 µM; in test [3], 1.69 µM; in test [5], 3.16 µM; in test [6], 3.66 µM; in [7], 3.55 µM. The TGI in [8] turned out to be 4.69 µM; in test [9], 1.89 µM; in test [10], 3.3 µM.
Consider `O=c1/c(=C\c2ccc(Br)cc2)sc2n1C(c1ccc(Br)cc1)C1=C(N=2)c2ccc3ccccc3c2OCC1` (stereo not given), for which the GI50 was 35.4 µM in [2]; over 100 µM in test [3]; over 100 µM in [4]; over 100 µM in test [5]; over 100 µM in test [6]; over 100 µM in test [7]. In addition, the GI50 in [8], in test [9] and in test [10] was over 100 µM in each case. Also, the TGI in test [2], in test [3], in test [4], in [5], in [6] and in test [7] was over 100 µM each time. Further, the TGI in [8], in test [9] and in [10] was over 100 µM each time.
With `COc1cc(C)[nH]c(=O)c1CNC(=O)c1c(C)n([C@H](C)C2CCN(CC(F)(F)F)CC2)c2ccccc12`, the GI50 in test [2] was 51.8 µM; in test [3], 78.5 µM; in [4], 34.4 µM; in [5] it was 41.7 µM; in [6] it was over 100 µM; in [7], 25.9 µM. In addition, the results for the GI50 in test [8], in test [9] and in [10] were 28.5 µM, 36.1 µM and 42.9 µM, respectively. The TGI in test [2], in test [3], in test [4], in [5], in test [6] and in [7] was over 100 µM in each case. In addition, the TGI in [8] was 82.9 µM; in [9] it was over 100 µM; in test [10] it was over 100 µM.
Regarding `COc1cc(C2CC(c3cccc(Nc4ccnc5cc(Cl)ccc45)c3)=NN2c2ccccc2)cc(OC)c1OC` (stereo not given), the GI50 in test [1] is 2.52 µM; in test [2], 5.49 µM; in test [3], 3.6 µM; in test [4] it was 41.2 µM; in test [6], 64.4 µM; in test [7], 1.44 µM. Also, the values for the GI50 in test [8], in [9] and in test [10] were 5.37 µM, 6.6 µM and 3.27 µM, respectively. Also, the TGI in test [1], in test [2], in [3], in [4], in test [6] and in test [7] was over 100 µM in each case. In addition, the TGI in [8], in [9] and in test [10] was over 100 µM throughout.
